Results reported in patent US9057929B2, “Quinolinium single crystals for use in nonlinear optics” (AJOU UNIVERSITY INDUSTRY-ACADEMIC COOPERATION FOUNDATION, priority 2011, dated 2015).
Like-named read-outs stand apart in the source and are kept apart here.

Key:
[1] = Thermal properties by DSC and TGA at a scanning rate of 10° C./min (thermal weight-loss temperature Ti); assay type: physicochemical; conditions: for Ti (thermal weight-loss temperature), second number of the Tm/Ti cell: intercept of leading edge of weight loss with baseline
Protocol: As results of measurement of thermal properties of the quinolinium derivative according to the present invention using differential scanning calorimetry (DSC) and thermogravimetric analysis (TGA) at a scanning rate of 10° C./min, the thermal weight-loss temperature Ti was estimated as a temperature at the intercept of the leading edge of the weight loss by the baseline of TGA scans.

[2] = Solubility in methanol
From the text: Meanwhile, the solubility in methanol of the quinolinium derivative according to the present invention is illustrated in (a) of FIG. 6. […] The solid line in the graph is based on the known Van't Hoff thermodynamic equilibrium equation using an ideal solution.

Compound	Ti (thermal weight-loss temperature), second number of the Tm/Ti cell ([1]; TGA, 10° C./min)	solubility in methanol as a reaction solvent ([2]; methanol, temperature not given)	solubility in methanol [2]	thermal stability of the crystal (FIG. 2) [1]	thermal stability of the crystal (FIG. 2) ([1]; TGA, 10° C./min)
CC1(C)CC(C=Cc2ccc(O)cc2)=CC(=C(C#N)C#N)C1 [OH1, 2-(3-(4-hydroxystyryl)-5,5-dimethylcyclohex-2-enylidene)malononitrile, reference compound]	212/325 °C				
COc1cc(C=Cc2ccc3ccccc3[n+]2C)ccc1O.[I+] [HMQ-I, 2-(4-hydroxy-3-methoxystyryl)-1-methylquinolinium iodine]		0.14 g/100 g methanol			
COc1cc(C=Cc2ccc3ccccc3[n+]2C)ccc1O.Cc1ccc(S(=O)(=O)[O-])cc1 [HMQ-T, 2-(4-hydroxy-3-methoxystyryl)-1-methylquinolinium 4-methylbenzenesulfonate]	273/297 °C		0.89 g/100 g methanol	exceeding 290 °C	
2-(4-hydroxy-3-methoxystyryl)-1-methylquinolinium 4-methoxylbenzenesulfonate [HMQ-MBS]	265/291 °C		0.56 g/100 g methanol		
CN(C)c1ccc(C=Cc2cc[n+](C)cc2)cc1.Cc1ccc(S(=O)(=O)[O-])cc1 [DAST, N,N-dimethylamino-N′-methylstilbazolium 4-methylbenzenesulfonate, reference compound]	250/250 °C				260 °C
